Consider 13 compounds from US8809627B2, “Plant isoflavone and isoflavanone O-methyltransferase genes” (The Samuel Roberts Noble Foundation, Inc., priority 2006, dated 2014).

Assay [1] concerns MtIOMT2. The assay is described as follows: OMT assays with purified recombinant MtIOMT2 (relative activity; HPLC/MS of products). Particulars: for Relative activity, MtIOMT2: 50 μM S-adenosyl methionine, 100 μM acceptor substrate, most converted substrate (daidzein) = 100%. Format: biochemical, Medicago truncatula. The source says:
(§1) Cloning of MtIOMT5 (corresponding to TC 100926, TIGR MtGI v.8) was as described previously (Liu et al., 2005). To obtain a full-length cDNA for MtIOMT2, specific primers designed based upon the M. truncatula genomic sequence were used to amplify the MtIOMT2 coding sequence from M. truncatula root cDNA. The amplified product was cloned into the pGEM®-T easy vector (Promega, Madison Wis.) and sequenced to confirm its identity. MtIOMTs were cloned into the pET28a vector (EMD Biosciences, Inc., San Diego, Calif.) using PCR-based amplification with primers designed to introduce EcoRI and XhoI restriction sites; BamHI and XhoI sites were used for cloning MtIOMT6 due to the presence of an internal EcoRI site in this particular cDNA. Because the EST for MtIOMT8 was missing a start codon, the primer designed to clone MtIOMT8 into pET28a contained an additional 2-nucleotide insertion to generate an ATG start site. All MtIOMTs were expressed as translational fusions to an N-terminal His-tag. Expression of MtIOMTs in E. coli BL21(DE3) and purification by Ni^2+-NTA chromatography were as described (Zubieta et al., 2001). Proteins were dialyzed against 20 mM Tris pH 8.0, 100 mM NaCl, 10% (v/v) glycerol, and 14 mM β-mercaptoethanol. Protein concentration was determined by Bradford assay using BSA as a standard (Bradford, 1976).
(§2) Reactions (200 μl) were performed in 0.1 M potassium phosphate, pH 7.4, 10% (w/v) sucrose, 14 mM β-mercaptoethanol with 10 μM protein, 0.5 mM S-adenosyl-L-methionine, and 80 μM phenolic substrates. All substrates were purchased from Indofine (Hillsborough, N.J.) except 6,7-dihydroxy-4′-methoxyisoflavone, dihydrodaidzein, and vestitol, which were purchased from Apin (Oxfordshire, UK). […] OMT assays were incubated at 30° C. for 2 h and extracted with ethyl acetate. Ethyl acetate extracts were dried under N2 and the resultant material was resuspended in 50-100 μl of methanol. Samples were analyzed on an Agilent 1100 HPLC, equipped with a quaternary pump (model #G1311A), a degasser (model #G1322A), an autosampler (model #G1313A), and a diode array detector (model #G1315A). Samples of 20 μl were applied to an ODS2 reverse-phase column (5 μm particle size, 4.6×250 mm) and eluted in 1% (v/v) phosphoric acid with an increasing gradient of acetonitrile (0-5 min, 25%; 5-35 min, 25-50%; 35-39 min, 50-100%) at a flow rate of 1 ml/min. To resolve the 4′-O-methylated and 7-O-methylated products of genistein, samples were applied to a Phenomenex SYNERGI Polar-RP 80 Å column (4 μm particle size, 4.6×250 mm) and eluted in water with an increasing gradient of acetonitrile (0-5 min, 20%; 5-17 min, 20-38%; 17-33 min, 38%; 33-45 min, 38-56%; 45-46 min, 56-100%) at a flow rate of 1 ml/min. Chiral chromatography was performed as described (Liu et al., 2005).
(§3) For determination of specific activities, reactions (100 μl) were performed in 0.1 M potassium phosphate, pH 7.4, 10% (w/v) sucrose, 14 mM β-mercaptoethanol with 0.2-μg protein, 50 μM S-adenosyl-L-methionine (0.025 μCi ^14C-SAM per reaction), and 100 μM substrate. Reactions were incubated at 30° C. for 15-25 min and stopped by addition of 4 μl of 1N HCl. Products were extracted into 500 μl of ethyl acetate and 400 μl was used for liquid scintillation counting.
(§4) An HP 1100 series II LC system (Hewlett-Packard, Palo Alto, Calif.) with a photodiode array detector was coupled to a Bruker Esquire ion-trap mass spectrometer (ITMS) equipped with an electrospray ionization source. A reverse phase, C18, 5 μm, 4.6×250 mm column (J. T. Baker, Phillipsburg, N.J.) was used for separations. The mobile phase consisted of 0.1% (v/v) acetic acid using linear gradients of 5-90% acetonitrile (v/v) in 70 min. The flow rate was 0.8 ml/min, and the temperature of the column was kept at 28° C. Both positive- and negative-ion mass spectra were acquired. […]

In assay [2] the target is T1, MtIOMT5 (Medicago truncatula, UniProt Q29U70).
T1 construct: His-tag (N); made in house; host or cells: E. coli BL21(DE3)
T1 sequence (Q29U70 1-364): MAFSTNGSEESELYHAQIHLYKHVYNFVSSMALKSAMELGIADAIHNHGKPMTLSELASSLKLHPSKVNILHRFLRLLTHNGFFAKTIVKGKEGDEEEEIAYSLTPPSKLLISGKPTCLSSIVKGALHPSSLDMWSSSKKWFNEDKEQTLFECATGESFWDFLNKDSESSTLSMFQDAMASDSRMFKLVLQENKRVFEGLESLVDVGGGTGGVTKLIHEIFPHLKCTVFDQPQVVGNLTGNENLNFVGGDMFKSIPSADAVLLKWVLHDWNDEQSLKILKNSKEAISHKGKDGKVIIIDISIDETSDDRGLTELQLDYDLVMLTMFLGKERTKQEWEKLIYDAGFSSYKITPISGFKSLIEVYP
Nature of the assay: OMT assays with purified recombinant MtIOMT5 (relative activity; HPLC/MS of products). The assay is classed as biochemical. The conditions noted are these: for Relative activity, MtIOMT5: 50 μM S-adenosyl methionine, 100 μM acceptor substrate, most converted substrate = 100%; for Position of methylation / reaction products, MtIOMT5: HPLC against standards, tandem MS.
Source text: as §1, §2, §3, §4

Assay [3] has as its system MtIOMT7. The assay is described as follows: OMT assays with purified recombinant MtIOMT7 (relative activity; HPLC/MS of products). Format: biochemical, Medicago truncatula. Particulars: for Relative activity, MtIOMT7: 50 μM S-adenosyl methionine, 100 μM acceptor substrate, most converted substrate = 100%.
Source text: as §1, §2, §3
An HP 1100 series II LC system (Hewlett-Packard, Palo Alto, Calif.) with a photodiode array detector was coupled to a Bruker Esquire ion-trap mass spectrometer (ITMS) equipped with an electrospray ionization source. A reverse phase, C18, 5 μm, 4.6×250 mm column (J. T. Baker, Phillipsburg, N.J.) was used for separations. The mobile phase consisted of 0.1% (v/v) acetic acid using linear gradients of 5-90% acetonitrile (v/v) in 70 min. The flow rate was 0.8 ml/min, and the temperature of the column was kept at 28° C. Both positive- and negative-ion mass spectra were acquired.

Take `O=c1oc2cc(O)ccc2c2oc3cc(O)ccc3c12` [Coumestrol]: in assay [1], the “Efficiency of methylation by MtIOMT2 (in words)” value (“Efficiency of methylation” for short) was “low efficiency” and the “Relative activity, MtIOMT2” value is listed as “≦1%”. Moreover, the “Relative activity, MtIOMT5” value in assay [2] is listed as 0%. Moreover, in assay [3], the “Relative activity, MtIOMT7” value is 1.5%.

Regarding `COc1cc2c(=O)c(-c3ccc(O)cc3)coc2cc1O` [Glycitein], the “Relative activity, MtIOMT2” value in assay [1] is reported as 38.9%. Besides, the “Relative activity, MtIOMT5” value in assay [2] is recorded as 0%. Moreover, the “Relative activity, MtIOMT7” value in assay [3] is listed as “≦1%”.

`O=c1c(-c2ccc(O)cc2)coc2cc(O)ccc12` [Daidzein]: the “Relative activity, MtIOMT2” value in assay [1] stood at 100%. For the same compound, the “Relative activity, MtIOMT5” value in assay [2] came to 0%. Besides, the “Relative activity, MtIOMT7” value in assay [3] was 0%.

In the case of `O=c1c(-c2ccc(O)cc2)coc2cc(O)cc(O)c12` [Genistein], the “Relative activity, MtIOMT2” value in assay [1] came to 61%. Moreover, the “Relative activity, MtIOMT5” value in assay [2] was 0%. In assay [3], the “Relative activity, MtIOMT7” value is 0%.

Regarding `COc1ccc(-c2coc3cc(O)c(O)cc3c2=O)cc1` [6,7-dihydroxy,4′-methoxyisoflavone], the “Relative activity, MtIOMT2” value in assay [1] was 0%. Besides, the “Relative activity, MtIOMT5” value in assay [2] came to 0%. Moreover, in assay [3], the “Relative activity, MtIOMT7” value was determined as 0%.

For `O=c1c(O)c(-c2cc(O)c(O)c(O)c2)oc2cc(O)cc(O)c12` [Myricetin], the “Relative activity, MtIOMT2” value in assay [1] is listed as 0%. Also, in assay [2], the “Relative activity, MtIOMT5” value amounted to 0%. For the same compound, the “Relative activity, MtIOMT7” value in assay [3] was 0%.

For the compound `O=c1cc(-c2ccc(O)cc2)oc2cc(O)cc(O)c12` [Apigenin], in assay [1], the “Relative activity, MtIOMT2” value came to 0%. Besides, the “Relative activity, MtIOMT5” value in assay [2] was determined as 0%. Further, the “Relative activity, MtIOMT7” value in assay [3] was determined as 0%.

Regarding `COc1ccc(C2COc3cc(O)ccc3C2)c(O)c1` (stereo not drawn) [Vestitol], in assay [1], the “Efficiency of methylation” value was “low efficiency” and the “Relative activity, MtIOMT2” value is “≦1%”. Also, the “Relative activity, MtIOMT5” value in assay [2] was “≦1%”. Besides, in assay [3], the “Relative activity, MtIOMT7” value stood at 3.4%.

In the case of `O=c1cc(-c2ccc(O)cc2)oc2cc(O)ccc12` [7,4′-dihydroxyflavone], the “Relative activity, MtIOMT2” value in assay [1] is on record as “≦1%”. Besides, the “Relative activity, MtIOMT5” value in assay [2] is 0%. Besides, in assay [3], the “Relative activity, MtIOMT7” value was found to be 0%.

With `O=c1c(-c2ccc(O)cc2)coc2cc(O)c(O)cc12` [6,7,4′-trihydroxyisoflavone], the “Relative activity, MtIOMT2” value in assay [1] is 35.3%. For the same compound, the “Relative activity, MtIOMT5” value in assay [2] is listed as 0%. The “Relative activity, MtIOMT7” value in assay [3] was 0%.

On to `O=c1c(-c2ccc(O)c(O)c2)coc2cc(O)ccc12` [7,3′,4′-trihydroxyisoflavone], for which, in assay [1], the “Relative activity, MtIOMT2” value stood at 43.1%. Also, the “Relative activity, MtIOMT5” value in assay [2] was found to be 0%. Moreover, the “Relative activity, MtIOMT7” value in assay [3] is “≦1%”.

For `O=C1C[C@@H](c2ccc(O)cc2)Oc2cc(O)cc(O)c21` [Naringenin], in assay [1], the “Efficiency of methylation” value is listed as “low efficiency” and the “Relative activity, MtIOMT2” value is recorded as “≦1%”. In assay [2], the “Relative activity, MtIOMT5” value is given as “≦1%” and the “Position of methylation / reaction products, MtIOMT5” value is given as “methylated on the 4′-positions”. For the same compound, in assay [3], the “Relative activity, MtIOMT7” value came to 100%. In addition, the “Amount of substrate methylated after 2 h” value in assay [3] (MtIOMT7, 2 h) is given as “Almost all”.

Consider `O=C1c2ccc(O)cc2OCC1c1ccc(O)cc1` (stereo not drawn) [Dihydrodaidzein], for which the “Relative activity, MtIOMT2” value in assay [1] turned out to be 70.1%. Further, in assay [2], the “Relative activity, MtIOMT5” value was determined as 7.9%; the “Position of methylation / reaction products, MtIOMT5” value is 4′-methoxy, 7-methoxy, and 4′,7-dimethoxy products. Further, the “Relative activity, MtIOMT7” value in assay [3] is recorded as 84.1%.
